According to patent publication US20180148418A1, “AMIDO-SUBSTITUTED CYCLOHEXANE DERIVATIVES” (Bayer Pharma Aktiengesellschaft, priority 2015, published 2018):

Experiments:
[1] = target: T1, TNKS2 (Homo sapiens, UniProt Q9H2K2); test: TNKS2 Assay B (auto-parsylation, [3H]-NAD+ SPA); type: biochemical; details: 6 nM TNKS2, auto-parsylation, over night at room temperature
T1 construct: purchased BPS Bioscience, San Diego, USA 80572 (TNKS2 Histone Ribosylation Assay Kit)
T1 sequence (Q9H2K2 1-1166): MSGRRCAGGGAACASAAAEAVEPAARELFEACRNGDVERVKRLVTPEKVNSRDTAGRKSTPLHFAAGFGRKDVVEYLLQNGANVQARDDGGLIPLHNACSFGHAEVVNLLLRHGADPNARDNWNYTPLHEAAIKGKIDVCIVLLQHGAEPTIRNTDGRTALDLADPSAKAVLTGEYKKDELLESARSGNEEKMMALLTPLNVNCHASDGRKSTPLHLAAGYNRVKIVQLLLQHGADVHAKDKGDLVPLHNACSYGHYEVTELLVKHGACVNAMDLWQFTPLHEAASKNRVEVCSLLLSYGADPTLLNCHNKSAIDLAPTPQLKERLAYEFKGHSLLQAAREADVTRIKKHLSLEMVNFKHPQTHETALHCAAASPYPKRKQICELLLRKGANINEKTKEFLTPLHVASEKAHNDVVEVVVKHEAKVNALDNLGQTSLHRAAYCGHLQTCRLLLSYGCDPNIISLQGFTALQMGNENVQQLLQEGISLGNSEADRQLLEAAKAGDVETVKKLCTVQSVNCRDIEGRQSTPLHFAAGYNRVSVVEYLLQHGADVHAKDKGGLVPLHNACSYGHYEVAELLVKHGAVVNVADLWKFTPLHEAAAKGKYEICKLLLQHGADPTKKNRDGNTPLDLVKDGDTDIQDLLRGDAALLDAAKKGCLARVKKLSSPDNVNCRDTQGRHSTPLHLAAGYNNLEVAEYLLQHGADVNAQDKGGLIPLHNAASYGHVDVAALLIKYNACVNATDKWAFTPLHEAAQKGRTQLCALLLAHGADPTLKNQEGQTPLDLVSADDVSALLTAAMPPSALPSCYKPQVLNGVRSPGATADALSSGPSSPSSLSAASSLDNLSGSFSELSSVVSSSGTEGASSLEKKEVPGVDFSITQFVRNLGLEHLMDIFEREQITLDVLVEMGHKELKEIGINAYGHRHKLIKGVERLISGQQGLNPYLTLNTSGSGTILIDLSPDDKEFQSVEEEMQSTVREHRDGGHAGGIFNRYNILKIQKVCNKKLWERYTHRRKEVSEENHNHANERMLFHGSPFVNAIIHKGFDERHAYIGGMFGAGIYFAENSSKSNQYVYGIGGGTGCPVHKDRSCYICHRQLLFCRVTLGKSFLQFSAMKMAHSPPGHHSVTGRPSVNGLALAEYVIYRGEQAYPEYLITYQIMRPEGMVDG

[2] = test system: wildtype Wnt signaling cascade; test: HEK293 TOP assay (Super TopFlash luciferase reporter, Wnt-3a stimulated); type: cell-based; details: Homo sapiens, HEK293, 16 h, HEK293 TOP reporter cells, Wnt3a at EC50, 16 hours
Summary of the method: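 HEK293 cells stably carrying Super TopFlash (TOP) run in parallel with FOP cells, 10000/well plated 24 h ahead, stimulated with recombinant human Wnt-3a. Compounds tested 50 μM to 15 nM in 3.16-fold steps in CAFTY buffer pH 7.4 with 2 mM Ca^2+ and 0.01% BSA; luciferase read-out.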

| IC50 [1] | IC50 [2] | Compound |
| --- | --- | --- |
| 0.047 µM | 0.4 µM | CNc1ccc2ncc(C(=O)N[C@H]3CC[C@H](C(=O)Nc4ccc(F)cc4Cl)CC3)n2n1 [Example 53, N-{trans-4-[(2-chloro-4-fluorophenyl)carbamoyl]cyclohexyl}-6-(methylamino)imidazo[1,2-b]pyridazine-3-carboxamide] |
| 0.025 µM | 0.097 µM | CC(=O)c1cnc2c(C(=O)N[C@H]3CC[C@H](C(=O)Nc4ccc(F)cc4Cl)CC3)cnn2c1C [Example 46, 6-acetyl-N-{trans-4-[(2-chloro-4-fluorophenyl)carbamoyl]cyclohexyl}-7-methylpyrazolo[1,5-a]pyrimidine-3-carboxamide] |
| 0.031 µM | 0.054 µM | CNC(=O)c1nc[nH]c1C(=O)N[C@H]1CC[C@H](C(=O)Nc2cc(C)c(F)cc2Cl)CC1 [Example 63, N^5-{trans-4-[(2-chloro-4-fluoro-5-methylphenyl)carbamoyl]cyclohexyl}-N^4-methyl-1H-imidazole-4,5-dicarboxamide] |
| 7.1 µM | 2.4 µM | CNC(=O)c1nc[nH]c1C(=O)N[C@H]1CC[C@H](C(=O)Nc2cc(N3CCOCC3)ccc2Cl)CC1 [Example 88, N^5-(trans-4-{[2-chloro-5-(morpholin-4-yl)phenyl]carbamoyl}cyclohexyl)-N^4-methyl-1H-imidazole-4,5-dicarboxamide] |
| 0.13 µM | 0.16 µM | O=C(N[C@H]1CC[C@H](C(=O)Nc2ccc(F)cc2Cl)CC1)c1cnc2cccnn12 [Example 45, N-{trans-4-[(2-chloro-4-fluorophenyl)carbamoyl]cyclohexyl}imidazo[1,2-b]pyridazine-3-carboxamide] |
| 0.069 µM | 0.042 µM | Cc1cc(C)n2ncc(C(=O)N[C@H]3CC[C@@]4(CCCN(c5cc(C)c(F)cc5Cl)C4=O)CC3)c2n1 [Example 302, N-[(trans)-2-(2-chloro-4-fluoro-5-methylphenyl)-1-oxo-2-azaspiro[5.5]undec-9-yl]-5,7-dimethylpyrazolo[1,5-a]pyrimidine-3-carboxamide] |
| 0.06 µM | 0.27 µM | CC(C)NCCNC(=O)c1nc[nH]c1C(=O)N[C@H]1CC[C@H](C(=O)Nc2ccc(F)cc2Cl)CC1 [Example 77, N^5-{trans-4-[(2-chloro-4-fluorophenyl)carbamoyl]cyclohexyl}-N^4-[2-(isopropylamino)ethyl]-1H-imidazole-4,5-dicarboxamide] |
| > 10 µM | 21 µM | O=C(NC1CCC(F)(C(=O)Nc2ccc(F)cc2Cl)CC1)c1cnn2cccnc12 (single isomer, unassigned) [Example 365, N-{4-[(2-chloro-4-fluorophenyl)carbamoyl]-4-fluorocyclohexyl}pyrazolo[1,5-a]pyrimidine-3-carboxamide (single isomer)] |
| 0.019 µM | 0.021 µM | Cc1nc2c(C(=O)N[C@H]3CC[C@H](C(=O)Nc4c(F)cc(F)cc4Cl)CC3)cnn2c2c1CCC2 [Example 363, N-{trans-4-[(2-chloro-4,6-difluorophenyl)carbamoyl]cyclohexyl}-5-methyl-7,8-dihydro-6H-cyclopenta[e]pyrazolo[1,5-a]pyrimidine-3-carboxamide] |
| 0.0028 µM | 0.0014 µM | CNC(=O)c1nc[nH]c1C(=O)N[C@H]1CC[C@@]2(CCN(c3cc(C)c(F)cc3Cl)C2=O)CC1 [Example 288, N^5-[(trans)-2-(2-chloro-4-fluoro-5-methylphenyl)-1-oxo-2-azaspiro[4.5]dec-8-yl]-N^4-methyl-1H-imidazole-4,5-dicarboxamide] |
| 0.12 µM | 0.25 µM | CNC(=O)c1[nH]cnc1C(=O)N[C@@H]1CC[C@@H](C(=O)Nc2ccc(F)cc2Cl)C[C@@H]1F (racemic) [Example 31, N^4-{(1α,2α,4β)-4-[(2-chloro-4-fluorophenyl)carbamoyl]-2-fluorocyclohexyl}-N^5-methyl-1H-imidazole-4,5-dicarboxamide] |
| 0.08 µM | 0.028 µM | Cc1cc(N2CCC[C@]3(CC[C@@H](NC(=O)c4cnc5cccnn45)CC3)C2=O)c(Cl)cc1F [Example 301, N-[(trans)-2-(2-chloro-4-fluoro-5-methylphenyl)-1-oxo-2-azaspiro[5.5]undec-9-yl]imidazo[1,2-b]pyridazine-3-carboxamide] |
| 0.31 µM | 0.41 µM | O=C(N[C@H]1CC[C@H](C(=O)Nc2ccc(F)cc2Cl)CC1)c1cnc2ccc(N3CCOCC3)nn12 [Example 48, N-{trans-4-[(2-chloro-4-fluorophenyl)carbamoyl]cyclohexyl}-6-(morpholin-4-yl)imidazo[1,2-b]pyridazine-3-carboxamide] |
| 0.25 µM | 0.38 µM | COCC(C)NC(=O)c1nc[nH]c1C(=O)N[C@H]1CC[C@H](C(=O)Nc2ccc(F)cc2Cl)CC1 (stereo partly drawn) [Example 82, N^5-{trans-4-[(2-chloro-4-fluorophenyl)carbamoyl]cyclohexyl}-N^4-(1-methoxypropan-2-yl)-1H-imidazole-4,5-dicarboxamide] |
| > 10 µM | 4 µM | Cc1c(C(C)(C)O)cnc2c(C(=O)N[C@H]3CC[C@H](C(=O)Nc4ccc(F)cc4Cl)CC3)cnn12 [Example 359, N-{trans-4-[(2-chloro-4-fluorophenyl)carbamoyl]cyclohexyl}-6-(2-hydroxypropan-2-yl)-7-methylpyrazolo[1,5-a]pyrimidine-3-carboxamide] |
| 0.025 µM | 0.11 µM | O=C(N[C@H]1CC[C@H](C(=O)Nc2ccc(F)cc2Cl)CC1)c1[nH]cnc1C(=O)N1CCC1 [Example 23, 4-(azetidin-1-ylcarbonyl)-N-{trans-4-[(2-chloro-4-fluorophenyl)carbamoyl]cyclohexyl}-1H-imidazole-5-carboxamide] |
| 0.011 µM | 0.063 µM | O=C(NCCN1CC2(CCO2)C1)c1nc[nH]c1C(=O)N[C@H]1CC[C@H](C(=O)Nc2ccc(F)cc2Cl)CC1 [Example 25, N^5-{trans-4-[(2-chloro-4-fluorophenyl)carbamoyl]cyclohexyl}-N^4-[2-(1-oxa-6-azaspiro[3.3]hept-6-yl)ethyl]-1H-imidazole-4,5-dicarboxamide] |
| 0.28 µM | 0.22 µM | COC[C@@H](C)NC(=O)c1nc[nH]c1C(=O)N[C@H]1CC[C@H](C(=O)Nc2c(F)cc(F)cc2Cl)CC1 [Example 67, N^5-{trans-4-[(2-chloro-4,6-difluorophenyl)carbamoyl]cyclohexyl}-N^4-[(2R)-1-methoxypropan-2-yl]-1H-imidazole-4,5-dicarboxamide] |
| 0.08 µM | 0.14 µM | CN(C)C1CN(C(=O)c2nc[nH]c2C(=O)N[C@H]2CC[C@H](C(=O)Nc3ccc(F)cc3Cl)CC2)C1 [Example 26, N-{trans-4-[(2-chloro-4-fluorophenyl)carbamoyl]cyclohexyl}-4-{[3-(dimethylamino)azetidin-1-yl]carbonyl}-1H-imidazole-5-carboxamide] |
| 0.023 µM | 0.13 µM | COC(C)(C)CNC(=O)c1nc[nH]c1C(=O)N[C@H]1CC[C@H](C(=O)Nc2cc(F)c(F)cc2Cl)CC1 [Example 85, N^5-{trans-4-[(2-chloro-4,5-difluorophenyl)carbamoyl]cyclohexyl}-N^4-(2-methoxy-2-methylpropyl)-1H-imidazole-4,5-dicarboxamide] |
| 4.4 µM | 0.028 µM | O=C(N[C@H]1CC[C@@]2(CCN(c3cccc(Cl)c3)C2=O)CC1)c1[nH]cnc1C(=O)N1CCOCC1 [Example 286, N-[(trans)-2-(3-chlorophenyl)-1-oxo-2-azaspiro[4.5]dec-8-yl]-4-(morpholin-4-ylcarbonyl)-1H-imidazole-5-carboxamide] |
| 0.0029 µM | 0.0018 µM | CCNC(=O)c1nc[nH]c1C(=O)N[C@H]1CC[C@@]2(CCN(c3cc(C)c(F)cc3Cl)C2=O)CC1 [Example 289, N^5-[(trans)-2-(2-chloro-4-fluoro-5-methylphenyl)-1-oxo-2-azaspiro[4.5]dec-8-yl]-N^4-ethyl-1H-imidazole-4,5-dicarboxamide] |
